{"source": "patent US12121565B2", "about": "“Methods of treatment of specific cancers with NLRP3 inhibitors and anti-PD1/PD-L1 antibodies” (Duke University, priority 2019, dated 2024)", "key": {"[1]": {"test_system": "autochthonous BRAFV600E PTEN−/− melanoma model", "assay": "Autochthonous tumor study: tumor growth, Gr-1 IHC, flow cytometry of tumor-infiltrating cells, serial biopsy qRT-PCR", "format": "in vivo, mouse", "method": "B6.Cg-Braf^tm1MmcmPten^tm1Hwu Tg(Tyr-cre/ERT2 H-2^b)13Bos/BosJ transgenic mice were subdermally injected with 4-Hydroxytomoxifen (4-HT) (Sigma, H6278-50MG CCF, 38.75 μg/mouse) to induce primary melanoma development at the base of the tail. Mice were randomly assigned to treatment cohorts once tumor volumes reached 64 mm^3 (19, 30, 50). Depending on the experiment, mice were treated with the following agents: CXCR2 inhibitor (AZD5069, AstraZeneca) at 100 mg/kg per os (po) twice daily, NLRP3 inhibitor (MCC950) 10 mg/kg i.p every other day, anti-PD1 ab (BioXCell) or rat IgG2a isotype control (BioXCell) at 200 μg by i.p. injection every 3 days, Dacarbazine (50 mg/kg or 75 mg/kg, Sigma-Aldrich, D2390) by i.p. injection once every other day. Melanoma growth was monitored by orthogonal caliper measurements every 3 days.\nTumors were resected and mechanically disaggregated by a gentleMACS dissociator (Miltenyi), filtered through 70-μm filters and digested with RPMI containing collagenase IV (1 mg/mL, Sigma-Aldrich), hyaluronidase (0.1 mg/mL, Sigma-Aldrich), and deoxyribonuclease (20 U/mL, Sigma-Aldrich) on a shaker at 250 rpm at 37° C. for 1 hour (23). Resected splenic and lymph node tissues were mechanically disaggregated using 1 cc syringe plunger and 40 μm filters followed by treatment with RBC lysis buffer (Sigma-Aldrich).\nParaffin-embedded tissues were processed and stained following standard protocols and imaged with a Zeiss CLSM 700 confocal microscope. The following antibodies were used in immunohistochemistry and immunofluorescence experiments: anti-Wnt5a (1 μg/ml), anti-Ly6G (0.5 μg/ml), anti-CD8a (0.5 μg/ml) and anti-CXCL5 (1 μg/ml). Tissue was permeabilized by incubation in 0.4% Triton-X in TBS for 20 min. Goat anti-rabbit conjugated to Alexa Fluor 564 and goat anti-mouse Alexa 488 were used as secondary antibodies for the appropriate primary antibody. For immunohistochemistry, anti-rat polymers were used as secondary antibodies and Warp Red chromogen detection system (BioCare, WR806S) was used for antigen visualization.\nOne million cells were stained with 1 μg per million cells of each fluorochrome conjugated antibodies or commercially available dyes according to the standard protocols and analyzed using a FACSCanto II or LSRII (Becton Dickinson). Cells were stained with Fc receptor blocking antibodies followed by a live/dead discriminator (CellTrace Violet, ThermoFisher, C34571), then by conjugated antibodies for 30 min at 4° C. Cell number was calculated by hemocytometer. Flow cytometry data was analyzed using Flowjo software v10.3.\nTotal RNA was isolated by RNeasy Plus Mini Kit (Qiagen, 74134). […] All data were normalized to Actb expression, and relative gene expression was quantitated based on the 2_DDCt method."}, "[2]": {"test_system": "WM266 human melanoma cell line", "assay": "In vitro treatment of human melanoma cell line followed by Western blot", "format": "cell-based", "conditions": "with or without TLR4 inhibitor; in a TLR4-dependent manner", "from_the_text": "FIG. 7A-G. The PD-L1/NLRP3/HSP70 PMN-MDSC adaptive recruitment pathway in human melanoma. (A) Supernatant HSP70 and caspase-1 p20 Western blot analysis following treatment of human WM266 melanoma cells with IFN-γ with or without anti-PD-L1 Ab. Blots are representative of 3 independent experiments. (B) Wnt5A Western blot analysis of HSP70-treated human WM266 melanoma cells with or without TLR4 inhibitor. Blots are representative of 3 independent experiments. (C) HSP70 and caspase-1 p20 Western blot analysis following treatment of human WM266 melanoma cells with ATP in the absence and presence of MCC950. Blots are representative of 2 independent experiments. (D) Cytolytic T cell markers correlated with ITGAM (CD11B), CD33, and NLRP3 gene expression in the melanoma TCGA-SKCM database. (E) RNA-Seq analysis of human melanoma tissue specimens collected before anti-PD-1 Ab therapy and at the time of disease progression on anti-PD-1 Ab therapy. TPM, transcripts per million. (F) Plasma HSP70 ELISA at week 0 and week 12 in patients with advanced melanoma undergoing anti-PD-1 Ab immunotherapy. (G) Change in HSP70 plasma levels following anti-PD-1 Ab immunotherapy in patients with advanced melanoma who were responders (R) or nonresponders (NR). The response was based on week-12 CT imaging. HSP70 changes were normalized to target tumor burden based on week-12 CT imaging. […]"}, "[3]": {"test_system": "BRAFV600E PTEN−/− melanoma cell line", "assay": "In vitro treatment of melanoma cell line followed by Western blot, qRT-PCR, IP, ASC polymerization or ELISA", "format": "cell-based, mouse", "from_the_text": "Braf^V600EPten^−/− (male, BPD6 (40)), Braf^V600EPten^−/−-Wnt5a^KD (40), Braf^V600EPten^−/−-CXCL5^KD, Braf^V600EPten^−/−-PDL1^KD, Braf^V600EPten^−/−-NLRP3^KD, OVA-expressing Braf^V600EPten^−/−, BRAF^V600EPTEN^−/−-STAT3^CA, and Braf^V600EPten^−/−-NTC (40) cell lines were generated using shRNA-expressing lentiviral vectors and cultured as previously described (40): shNLRP3 (Sigma, SHCLN-NM_145827), shPDL1 (Sigma, SHCLND-NM_021893), shWnt5a (Sigma, SHCLND-NM_009524), shTLR4 (Sigma, SHCLNG-NM_025817, and pLKO.1-puro empty vector control (NTC) (Sigma, SHC001). Stable cell lines were selected by puromycin resistance (Sigma-Aldrich, P8833). Murine Lewis Lung Carcinoma (LLC) cell line is from ATCC (1704526). All cell lines were tested Mycoplasma-free by Duke University Cell Culture Facility shared services. All Braf^V600EPten^−/− cell lines and the LLC cell line were maintained at 37° C. in DMEM (Invitrogen) with 2 mM L-glutamine, supplemented with 10% fetal bovine serum, 100 units/ml penicillin. Depending on the experiment, cell lines were treated with Wnt5a (100-200 ng/ml, R&D Systems/Bio-techne, 645-WN-010), IFNγ (100 ng/ml, BioAbChem, 42-IFNg), anti-PD-L1 ab (1-2 μg/ml), Hsp70 (1 μM-10 μM, Enzo, ADI-ESP-502-D), Hsp70 inhibitor (ThermoFisher, VER155008), CLI-095 TLR4 inhibitor (3 μM-10 μM, Invivogen, tlrl-cli95), TLR2-IN-C29 TLR2 inhibitor (1 μM-10 μM, Glixx, GLXC-06203), MPLA TLR4 agonist (10 μM, Enzo, ALX-581-205-C100), LPS (Lipopolysaccharide) (10 ng, Sigma-Aldrich, L4391-1MG), ATP (1 mM-5 mM, Invivogen, tlrl-atpl), MCC950 NLRP3 inhibitor (2.5 μM-10 μM, Invivogen, inh-mcc), XAV939 β-catenin inhibitor (0.5-1.0 μM, Sigma-Aldrich, X3004-5MG), 2-Aminopurine PKR inhibitor (1 mM-5 mM, Invivogen, tlrl-apr), Verteporfin YAP inhibitor (0.1 μM-1 μM, R&D Systems/Bio-techne, 530510) or vehicle control either for 24 or 48 hrs prior to in vitro and in vivo experiments. Control siRNA (Santa Cruz, sc-37007). TLR4 siRNA (SantaCruz, sc-40261).\nOT-1 CD8 cell activation was performed by incubating isolated splenocytes of OT-1 transgenic mice with IL-2 (100 U/ml) and SIINFEKL peptide (1 μg/ml, New England Peptide, BP10-915) for 3 days followed by magnetic bead CD8 purification according to the manufacturer's instructions (Miltenyi biotec, 130-104-075). Activated OT-1 CD8 cells were incubated with Braf^V600EPten^−/−-OVA cells and treated with anti-PD1 ab (1 μg/ml) for 72 hrs at a tumor cell:CD8^+ T cell ratio of 1:5. In separate experiments, Braf^V600EPten^−/− cells were treated with increasing concentrations of Dacarbazine (10 μmol-400 μmol).\nTumor tissue or cells were homogenized in NP40 lysis buffer (Sigma-Aldrich) supplemented with complete protease inhibitor and phosphatase inhibitor (Roche). Cells were lysed in Laemmli sample buffer after treatment and subjected to SDS-polyacrylamide gel electrophoresis. After transferring onto PVDF membranes (Bio-Rad), monoclonal and polyclonal primary antibodies and appropriate HRP-conjugated secondary antibodies were utilized for blotting. For the immunoprecipitation assays, cells were lysed with TBS buffer (50 mM Tris-HCl (pH 7.4), 150 mM NaCl) containing 0.5% Triton X-100, EDTA-free protease inhibitor cocktail and phosphatase inhibitor cocktail, precleared with protein A/G beads, and then incubated with 1 μg of appropriate antibodies or isotype control IgG on a rotator overnight at 4° C. then incubated with protein A/G-agarose at 4° C. for 1 hour. After 5 washes with TBS buffer, immunoprecipitated complexes were eluted in sample buffer by boiling and subjected to immunoblot analysis. Immunoblots were visualized by chemiluminescence substrate (ThermoFisher) and imaged by a ChemiDoc XRSplus system (BioRad). For the ASC polymerization assay, cells were lysed with TBS buffer containing 0.5% Triton X-100, EDTA-free protease inhibitor cocktail and phosphatase inhibitor cocktail. The lysates were centrifuged at 4,000 g at 4° C. for 15 min. […]"}, "[4]": {"test_system": "human melanoma tissue specimens", "assay": "RNASeq of human melanoma tissue at baseline and during disease progression", "format": "in vivo", "conditions": "following disease progression versus baseline", "from_the_text": "All plasma samples were collected from 17 advanced melanoma patients undergoing anti-PD-1 ab immunotherapy at week 0 and week 12 on an ongoing tissue acquisition protocol investigating checkpoint inhibitor resistance at Duke Cancer Institute (NCT02694965). Three paired tumor specimens obtained at week 0 and at the time of disease progression while undergoing anti-PD-1 ab immunotherapy were collected at Vanderbilt University Medical Center (Institutional Protocol #: 100178). Treatment responses were evaluated based on RECIST (Response Evaluation Criteria in Solid Tumors v1.1).\nRNA-seq was performed by Duke Sequencing and Genomic Technologies Shared Resources. A complementary DNA library was prepared via oligo-dT-directed reverse transcription (Ambion) and subjected to deep sequencing on IlluminaHiSeq4000 (50-bp single-read sequencing; Anti-PD-1 resistance Study RNA-seq, accession number: SAMN09878780). RNA-seq data generated here and publicly available RNA-seq data were processed by Duke Center for Genomic and Computational Biology using the TrimGaloretoolkit that uses Cutadapt to trim low-quality bases and Illumina sequencing adapters from the 3′ end of the reads. Only reads that were of 20 nucleotides (nt) or longer after trimming were kept for further analysis. Reads were mapped to the GRCm38v68 version of the mouse genome and transcriptome using the STAR RNA-seq alignment tool. […]"}, "[5]": {"conditions": "CXCR2 inhibitor 100 mg/kg po twice daily combined with anti-PD-1 Ab"}}, "data": [{"molecule": "C[C@@H](Oc1cc(NS(=O)(=O)N2CCC2)nc(SCc2cccc(F)c2F)n1)[C@@H](O)CO", "note": "[AZD5069]", "values": [{"measurement": "CD8+ T cell tumor infiltration", "setting": "[1]; [5]", "value": "enhanced"}, {"measurement": "PMN-MDSC recruitment in response to anti-PD-1 Ab therapy", "setting": "[1]; [5]", "value": "significantly suppressed"}, {"measurement": "tumor progression", "setting": "[1]; [5]", "value": "suppressed"}, {"measurement": "time dependence of impact on tumor volume change rate", "setting": "[1]; correlating with the period of PMN-MDSC influx into the tumor", "value": "more significant at later time points"}]}, {"molecule": "HSP70: recombinant HSP70 (1 μM-10 μM, Enzo, ADI-ESP-502-D)", "values": [{"measurement": "Wnt5a upregulation by HSP70", "setting": "[2]", "value": "induced"}, {"measurement": "receptor dependence of HSP70 stimulation of Wnt5a expression", "setting": "[3]; pharmacologic inhibitor and shRNA silencing studies", "value": "TLR4 dependent"}, {"measurement": "Wnt5a expression after HSP70 stimulation (Western blot)", "setting": "[3]; titrated concentrations, in a dose-dependent manner", "value": "induced upregulation"}]}, {"molecule": "IL-1β: recombinant IL-1β at titrated concentrations", "values": [{"measurement": "induction of Wnt5a expression by tumor cells", "setting": "[3]; titrated concentrations of recombinant IL-1β", "value": "no evidence"}]}, {"molecule": "nivolumab: an anti-PD-1 antibody, available from Bristol-Myers Squibb Co", "values": [{"measurement": "expression of myeloid markers CXCL1, CD33, ITGAM, CXCR2, S00A8 and S00A9", "setting": "[4]", "value": "elevated expression"}]}, {"molecule": "rWnt5a: recombinant Wnt5a (100-200 ng/ml, R&D Systems/Bio-techne, 645-WN-010) (protein, UniProt P41221 62-380, looked up) Protein Wnt-5a: IIGAQPLCSQLAGLSQGQKKLCHLYQDHMQYIGEGAKTGIKECQYQFRHRRWNCSTVDNTSVFGRVMQIGSRETAFTYAVSAAGVVNAMSRACREGELSTCGCSRAARPKDLPRDWLWGGCGDNIDYGYRFAKEFVDARERERIHAKGSYESARILMNLHNNEAGRRTVYNLADVACKCHGVSGSCSLKTCWLQLADFRKVGDALKEKYDSAAAMRLNSRGKLVQVNSRFNSPTTQDLVYIDPSPDYCVRNESTGSLGTQGRLCNKTSEGMDGCELMCCGRGYDQFKTVQTERCHCKFHWCCYVKCKKCTEIVDQFVCK", "values": [{"measurement": "diminished CXCL5 expression of Wnt5a-knockdown cell line after addition of rWnt5a", "setting": "[3]; BRAFV600E PTEN−/− Wnt5aKD cells, qRT-PCR", "value": "rescued"}, {"measurement": "YAP stabilization (Western blot)", "setting": "[3]; rWnt5a at various time points", "value": "induced"}, {"measurement": "Cxcl2, Cxcl5 and Cxcl1 gene expression (qRT-PCR)", "setting": "[3]; rWnt5a versus vehicle control", "value": "induced"}, {"measurement": "CXCL5 expression (Western blot)", "setting": "[3]; rWnt5a, in a YAP-dependent manner", "value": "stimulating"}]}]}
